Assay results as given in patent US9834542B2, “LXR modulators” (BRISTOL-MYERS SQUIBB COMPANY, priority 2013, dated 2017).

Biological target: T1, LXRβ (Homo sapiens, UniProt P55055)
T1 construct: Co-transfection expression plasmids, comprising full-length LXRα (pCMX-h LXRα[…] or LXRβ (pCMX-hLXRβ)); expressed in transfected cells; host or cells: CV-1 African Green Monkey Kidney Cells
T1 sequence (P55055 1-460): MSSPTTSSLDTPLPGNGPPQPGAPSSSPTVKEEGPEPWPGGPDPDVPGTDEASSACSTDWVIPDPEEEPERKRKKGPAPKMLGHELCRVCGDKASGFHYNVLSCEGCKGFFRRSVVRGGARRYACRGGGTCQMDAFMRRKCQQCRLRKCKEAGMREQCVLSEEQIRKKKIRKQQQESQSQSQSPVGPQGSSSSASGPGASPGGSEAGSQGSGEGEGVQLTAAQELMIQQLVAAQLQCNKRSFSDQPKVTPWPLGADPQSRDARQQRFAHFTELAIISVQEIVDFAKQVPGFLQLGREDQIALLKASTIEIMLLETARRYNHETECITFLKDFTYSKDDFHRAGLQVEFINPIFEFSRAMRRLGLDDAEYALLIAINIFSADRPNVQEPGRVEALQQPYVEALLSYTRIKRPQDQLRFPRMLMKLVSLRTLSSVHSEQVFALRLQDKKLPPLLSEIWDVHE
T1 sequence (P19793 1-462 partner): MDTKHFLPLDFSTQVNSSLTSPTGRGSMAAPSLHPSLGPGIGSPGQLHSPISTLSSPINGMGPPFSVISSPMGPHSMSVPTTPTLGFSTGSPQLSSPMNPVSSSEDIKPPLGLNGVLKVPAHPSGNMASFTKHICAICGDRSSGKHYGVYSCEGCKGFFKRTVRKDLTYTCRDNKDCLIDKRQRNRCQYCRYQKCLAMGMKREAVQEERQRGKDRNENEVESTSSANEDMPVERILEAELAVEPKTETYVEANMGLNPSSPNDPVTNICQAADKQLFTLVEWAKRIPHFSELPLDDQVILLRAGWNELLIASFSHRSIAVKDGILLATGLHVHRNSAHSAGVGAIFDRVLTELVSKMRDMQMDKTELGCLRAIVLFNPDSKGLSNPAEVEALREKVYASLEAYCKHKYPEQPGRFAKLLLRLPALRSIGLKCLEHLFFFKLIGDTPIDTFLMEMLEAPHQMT
Experiment: Co-transfection assay (LXRE luciferase reporter), LXRβ
Format: cell-based
Conditions: for EC50: CV-1 cells transfected with pCMX-hLXRβ and LXREx1-Tk-Luciferase, 20 hours incubation; for Emax: LXRβ co-transfection, relative to high control 1-(2,4-difluorobenzyl)-2-oxo-6-(4-phenoxyphenyl)-4-(trifluoromethyl)-1,2-dihydropyridine-3-carbonitrile, read-out: % Efficacy
Outline: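 CV-1 cells transiently co-transfected with full-length human LXRβ expression plasmid, LXREx1-Tk-luciferase reporter and β-galactosidase control, then exposed to compound for 20 h at 37 °C. Luciferase luminescence read; EC50 from 11-point, ½-log dose–response fit, efficacy relative to high-control agonist maximum.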

SMILES | EC50 | Emax
Cc1nc(-c2cc(-c3cc(F)c(CO)c(S(C)(=O)=O)c3)ccc2-n2cc(C(F)(F)F)nc2C)c(-c2ccc(OC(F)(F)C(F)F)cc2)o1 [Example 544, (3-fluoro-4′-(2-methyl-4-(trifluoromethyl)-1H-imidazol-1-yl)-3′-(2-methyl-5-(4-(1,1,2,2-tetrafluoroethoxy)phenyl)oxazol-4-yl)-5-(methylsulfonyl)-[1,1′-biphenyl]-4-yl)methanol] | 35 nM | 41%
Cc1nc(-c2cc(-c3cc(F)c(CO)c(S(C)(=O)=O)c3)ccc2-n2cc(C(F)(F)F)nc2C)c(-c2cccc(OC(F)(F)F)c2)o1 [Example 545, (3-fluoro-4′-(2-methyl-4-(trifluoromethyl)-1H-imidazol-1-yl)-3′-(2-methyl-5-(3-(trifluoromethoxy)phenyl)oxazol-4-yl)-5-(methylsulfonyl)-[1,1′-biphenyl]-4-yl)methanol] | 38 nM | 32%
Cc1nc(-c2cc(-c3cc(F)c(CO)c(S(C)(=O)=O)c3)ccc2-n2cc(C(F)(F)F)nc2C)c(-c2cccc(OC(F)(F)C(F)F)c2)o1 [Example 546, (3-fluoro-4′-(2-methyl-4-(trifluoromethyl)-1H-imidazol-1-yl)-3′-(2-methyl-5-(3-(1,1,2,2-tetrafluoroethoxy)phenyl)oxazol-4-yl)-5-(methylsulfonyl)-[1,1′-biphenyl]-4-yl)methanol] | 119 nM | 51%
Cc1nc(-c2cc(-c3cccc(S(C)(=O)=O)c3)ccc2-n2cc(C(F)(F)F)nc2C)c(-c2ccccc2OC(F)F)o1 [Example 547, 5-(2-(difluoromethoxy)phenyl)-2-methyl-4-(4-(2-methyl-4-(trifluoromethyl)-1H-imidazol-1-yl)-3′-(methylsulfonyl)-[1,1′-biphenyl]-3-yl)oxazole] | 474 nM | 39%
Cc1nc(-c2cc(-c3cc(F)c(CO)c(S(C)(=O)=O)c3)ccc2-n2cc(C(F)(F)F)nc2C)c(-c2ccccc2OC(F)F)o1 [Example 548, (3′-(5-(2-(difluoromethoxy)phenyl)-2-methyloxazol-4-yl)-3-fluoro-4′-(2-methyl-4-(trifluoromethyl)-1H-imidazol-1-yl)-5-(methylsulfonyl)-[1,1′-biphenyl]-4-yl)methanol] | 84 nM | 43%
Cc1nc(-c2cc(-c3cc(F)c(CO)c(S(C)(=O)=O)c3)ccc2-n2cc(C(F)(F)F)nc2C)c(-c2cccnc2Cl)o1 [Example 549, (3′-(5-(2-chloropyridin-3-yl)-2-methyloxazol-4-yl)-3-fluoro-4′-(2-methyl-4-(trifluoromethyl)-1H-imidazol-1-yl)-5-(methylsulfonyl)-[1,1′-biphenyl]-4-yl)methanol] | 483 nM | 87%
Cc1nc(-c2cc(-c3cccc(S(C)(=O)=O)c3)ccc2-n2cc(C(F)(F)F)nc2C)c(-c2ccc(Cl)nc2)o1 [Example 550, 5-(6-chloropyridin-3-yl)-2-methyl-4-(4-(2-methyl-4-(trifluoromethyl)-1H-imidazol-1-yl)-3′-(methylsulfonyl)-[1,1′-biphenyl]-3-yl)oxazole] | 625 nM | 85%
Cc1nc(-c2cc(-c3cc(F)c(CO)c(S(C)(=O)=O)c3)ccc2-n2cc(C(F)(F)F)nc2C)c(-c2ccc(Cl)nc2)o1 [Example 551, (3′-(5-(6-chloropyridin-3-yl)-2-methyloxazol-4-yl)-3-fluoro-4′-(2-methyl-4-(trifluoromethyl)-1H-imidazol-1-yl)-5-(methylsulfonyl)-[1,1′-biphenyl]-4-yl)methanol] | 522 nM | 79%
Cc1nc(-c2cc(-c3cccc(S(C)(=O)=O)c3)ccc2-n2cc(C(F)(F)F)nc2C)c(-c2cccnc2Cl)o1 [Example 552, 5-(2-chloropyridin-3-yl)-2-methyl-4-(4-(2-methyl-4-(trifluoromethyl)-1H-imidazol-1-yl)-3′-(methylsulfonyl)-[1,1′-biphenyl]-3-yl)oxazole] | 913 nM | 82%
COCCc1nc(-c2cc(-c3cccc(S(C)(=O)=O)c3)ccc2-n2cc(C(F)(F)F)nc2C)c(-c2ccc(Cl)cc2Cl)o1 [Example 553, 5-(2,4-dichlorophenyl)-2-(2-methoxyethyl)-4-(4-(2-methyl-4-(trifluoromethyl)-1H-imidazol-1-yl)-3′-(methylsulfonyl)-[1,1′-biphenyl]-3-yl)oxazole] | 156 nM | 60%
Cc1nc(C(F)(F)F)cn1-c1ccc(-c2cc(F)c(CO)c(S(C)(=O)=O)c2)cc1-c1nc(C(C)CO)oc1-c1ccc(OC(F)(F)F)cc1 (centres unmarked) [Example 554, 2-(4-(3′-fluoro-4′-(hydroxymethyl)-4-(2-methyl-4-(trifluoromethyl)-1H-imidazol-1-yl)-5′-(methylsulfonyl)-[1,1′-biphenyl]-3-yl)-5-(4-(trifluoromethoxy)phenyl)oxazol-2-yl)propan-1-ol] | 226 nM | 31%

Now from value to compound:

EC50 | Emax | SMILES
18 nM | 96% | CCc1nc(-c2cc(-c3cccc(S(C)(=O)=O)c3)ccc2-n2cc(C(F)(F)F)nc2C)c(-c2ccc(OC(F)(F)F)cc2)o1 [Example 555, 2-ethyl-4-(4-(2-methyl-4-(trifluoromethyl)-1H-imidazol-1-yl)-3′-(methylsulfonyl)-[1,1′-biphenyl]-3-yl)-5-(4-(trifluoromethoxy)phenyl)oxazole]
13 nM | 100% | CCc1nc(-c2cc(-c3cc(F)c(CO)c(S(C)(=O)=O)c3)ccc2-n2cc(C(F)(F)F)nc2C)c(-c2ccc(OC(F)(F)F)cc2)o1 [Example 556, (3′-(2-ethyl-5-(4-(trifluoromethoxy)phenyl)oxazol-4-yl)-3-fluoro-4′-(2-methyl-4-(trifluoromethyl)-1H-imidazol-1-yl)-5-(methylsulfonyl)-[1,1′-biphenyl]-4-yl)methanol]
14 nM | 82% | CCCc1nc(-c2cc(-c3cc(F)c(CO)c(S(C)(=O)=O)c3)ccc2-n2cc(C(F)(F)F)nc2C)c(-c2ccc(OC(F)(F)F)cc2)o1 [Example 557, (3-fluoro-4′-(2-methyl-4-(trifluoromethyl)-1H-imidazol-1-yl)-5-(methylsulfonyl)-3′-(2-propyl-5-(4-(trifluoromethoxy)phenyl)oxazol-4-yl)-[1,1′-biphenyl]-4-yl)methanol]
10 nM | 82% | CCCc1nc(-c2cc(-c3ccc(CO)c(S(C)(=O)=O)c3)ccc2-n2cc(C(F)(F)F)nc2C)c(-c2ccc(OC(F)(F)F)cc2)o1 [Example 558, (4′-(2-methyl-4-(trifluoromethyl)-1H-imidazol-1-yl)-3-(methylsulfonyl)-3′-(2-propyl-5-(4-(trifluoromethoxy)phenyl)oxazol-4-yl)-[1,1′-biphenyl]-4-yl)methanol]
34 nM | 76% | Cc1nc(C(F)(F)F)cn1-c1ccc(-c2cccc(S(C)(=O)=O)c2)cc1-c1nc(C(C)C)oc1-c1ccc(OC(F)(F)F)cc1 [Example 559, 2-isopropyl-4-(4-(2-methyl-4-(trifluoromethyl)-1H-imidazol-1-yl)-3′-(methylsulfonyl)-[1,1′-biphenyl]-3-yl)-5-(4-(trifluoromethoxy)phenyl)oxazole]
